Blank lines part the entries; values can stand above or below the compound they belong to.
Legend:
[1] = system: iNOS; assay: iNOS expression in macrophage activation (Western blotting); assay type: cell-based; settings: RAW264.7 cells, LPS
Experimental: RAW264.7 cells were activated under the same conditions as in (4), the cells were recovered and proteins were extracted from the cells by a routine method. Western blotting was conducted, using an anti-iNOS antibody (Santa Cruz Biotechnology) and an anti-α-tubulin antibody (Sigma Aldrich Japan) at the dilution ratio of 1/3000.

[2] = system: murine bone marrow-derived macrophages; assay: Toxicity on murine bone marrow-derived macrophages (trypan blue dye exclusion); assay type: cell-based, mouse
Experimental: An 8 week-old ICR mouse (male, purchased from Charles River) sacrificed by cervical dislocation was dissected under sterile conditions to isolate femora and […] from both legs. Medullary cavities were washed with α-MEM several times using a 21G needle attached to a 1 mL syringe. The fluid (α-MEM) after washing was filtrated through a nylon mesh (330 mesh) to remove unnecessary cells, and myelocytes were isolated. The myelocyte suspension in α-MEM thus obtained was diluted to 1.25 to 3.75×10^6 cell/mL. To 80 mL of the myelocyte suspension, 80 μL of hM-CSF (Wako Pure Chemical) at 10 μg/mL prepared with PBS containing 0.1% BSA was added (final concentration 10 ng/mL). The cells thus prepared were seeded onto 24-well plates (Corning Inc.) by 500 μL to 1 mL per well, and cultured at 37° C. under 5% CO2 for 2 days. Then, unattached cells were washed away with α-MEM, fresh α-MEM containing 10 ng/mL of hM-CSF was added, and the attached cells thus obtained were used as the murine bone marrow-derived macrophages.
The murine bone marrow-derived macrophages thus prepared were seeded onto 24-well plates (Corning Inc.) by 1 mL each (1.25 to 3.75×10^6 cell/mL). To each of the wells, DTCM glutarimide-C12 at respective concentrations of 1.0, 3.0, 10.0 and 30.0 μg/mL was added, and all the experimental groups were cultured at 37° C. under 5% CO2. The control group was cultured under the same condition but without addition of DTCM glutarimide-C12.
The cells in the experimental groups were detached using a cell scraper and dissolved in α-MEM at 24 hours, 48 hours and 72 hours after the addition of DTCM glutarimide-C12. Then 1 mL of the cell suspensions were recovered in fresh Eppendorf tubes. […] 10 μL of the cell suspensions was put onto a hemacytometer (Erma Inc.) and total cells and dead cells were counted under a microscope at 100× magnification. In hemacytometric counting, approximately 100 cells were counted per one visual field, and the cell survival rates obtained in four visual fields were averaged. The cell survival rate (%) was calculated according to the following formula. […]

[3] = system: F9 cells; assay: Survival rate and growth of F9 cancer cells; assay type: cell-based, murine
Experimental: F9 cells derived from murine embryonic tumor cells (purchased from RIKEN Tsukuba Institute BioResource Center, Cell Engineering Division) were plated onto plastic dishes at 1×10^4 cell/mL in DMEM medium containing 15% FBS. DTCM glutarimide-C12 was then added at the concentration of 0, 0.1, 0.3, 1.0, 3.0, 10.0 or 30.0 μg/mL in the culture media, and were cultured for 24, 48 or 72 hours. By following the same method as described in “Measurement of Cell Survival Rate by Trypan Blue Staining” in Example (10), the survival rates of cells were measured. Also, suspensions of the cultured cells were similarly prepared and the numbers of cells in the suspensions were counted by Coulter Counter (Beckman Coulter Inc.) to evaluate cell growth.

[4] = system: RAW264.7 cells; assay: Inhibition of synthesis of DNA, RNA and protein (3H-thymidine, uridine, leucine incorporation); assay type: cell-based; settings: concentrations up to 10.0 μg/mL, 6 hours + 1 hour label
Experimental: In this example, the cytotoxicity of DTCM glutarimide on RAW264.7 cells was evaluated, based on the inhibition of synthesis of DNA, RNA and protein.
After RAW264.7 cells were cultured under the same conditions as in (2) with the media supplemented with DTCM glutarimide-C12 at concentrations (0, 0.1, 0.3, 1.0, 3.0 and 10.0 μg/mL) for 6 hours, ^3H-labeled 0.1% thymidine, 0.1% uridine and 0.1% leucine were added to the media and the cells were further cultured for 1 hour. The cells were recovered and radioactivity of TCA-insoluble fractions was measured by using a liquid scintillation counter. The counts obtained at the DTCM glutarimide-C12 concentrations were normalized by setting to 100 the count obtained without addition of DTCM glutarimide-C12 in a control experiment and relatively plotted in the graph shown in FIG. 3.

[5] = system: COX-2; assay: COX-2 expression in macrophage activation (Western blotting); assay type: cell-based; settings: RAW264.7 cells, LPS
Experimental: RAW264.7 cells were activated under the same conditions as in (4), the cells were recovered, proteins were extracted from the cells in a routine method, and Western blotting was conducted using an anti-COX-2 antibody (BD Bioscience) and an anti-α-tubulin antibody (Sigma Aldrich Japan) at the dilution ratio of 1/3000.

[6] = system: murine bone marrow-derived macrophages; assay: RANKL-induced osteoclast differentiation of murine bone marrow-derived macrophages (TRAP staining); assay type: cell-based, mouse; settings: 0.3, 1.0 and 3.0 μg/mL, RANKL 100 ng/mL, 5 days
Experimental: The primary murine bone marrow-derived macrophages prepared in Example (10) were plated onto 24-well plates (Corning Inc.) by 500 μL each (1.25 to 3.75×10^6 cell/mL). Then 5 μL of DTCM glutarimide-C12 was added to each of the wells to the final concentrations of 0, 0.3, 1.0 and 3.0 μg/mL. All the experimental groups of plates were cultured at 37° C. under 5% CO2 for 2 hours. hRANKL (Wako Pure Chemical) at 10 μg/mL prepared in PBS containing 0.1% BSA was then added by 5 μL each (final concentration 100 ng/mL), and culture was continued. RANKL has been known as a factor to induce osteoclasts differentiation of macrophages etc. (Kobayashi et al. Crit. Rev Eukaryot Gene Expr. 19(1), 61-72, 2009). The control group of plates was cultured under the same condition but without RANKL and DTCM glutarimide.
After 5 days of culture, the media were removed, and the cells were washed by PBS. 250 μL each of 3.5% paraformaldehyde was added to the wells to fix the cells for 5 minutes, and the fixative was washed away with PBS. […] Following an addition of 250 μL of PBS, the plates were observed under a microscope and the number of mature osteoclasts was counted in the entire visual field by regarding TRAP-positive cell having three or more fused nuclei as the mature osteoclast as it is known to be TRAP-positive.

[7] = system: NF-κB; assay: DNA binding ability of NF-κB (gel shift assay); assay type: cell-based; settings: RAW264.7 cells
Experimental: Next, under the same conditions as in (2) above, RAW264.7 cells were cultured with the media supplemented with DTCM glutarimide-C12 at concentrations (0, 0.1, 0.3, 1.0 and 3.0 μg/mL) for 2 hours, to which 3.0 μg/mL of LPS was added, and the cells were further cultured for 30 minutes. Then, nuclear extracts were prepared by a routine method, and a gel shift assay was conducted with using 3 μL of a ^32P-labeled probe.
The probe was prepared as follows. First, 4 μL of 1.75 μmol/mL oligonucleotide (Promega Inc.) (5′-[…]-3′; SEQ ID N0.1), 4 μL of 10×T4 PNK buffer (Takara) and 10 μL of nucleotide free water were mixed, to which 2 μL of [γ-^32P]-ATP (Amarsham Corp.) was added, and incubated at 37° C. for 10 minutes. The reaction was then terminated by addition of 80 μL of TE buffer (10 mM Tris-HCl:1 mM EDTA=1:1). 100 μL of the reaction solution was loaded onto a Nick Column (Amersham Corp.) which had been prepared by removing the filled TE buffer and washing with distilled water, 400 μL of distilled water was loaded, and the eluate from the column was recovered in a 1.5 mL Eppendorf tube. Additional 400 μL of distilled water was loaded, and the fraction eluted again from the column was recovered in the 1.5 mL Eppendorf tube. The elute thus obtained was used as the labeled DNA probe. […]

[8] = system: NO production; assay: NO production by LPS-activated macrophages (Griess reaction); assay type: cell-based; settings: RAW264.7 cells
Experimental: After RAW264.7 cells were cultured under the same conditions as in (2) with the media supplemented with DTCM glutarimide-C12 at concentrations (0, 0.1, 0.3, 1.0 and 3.0 μg/mL) for 2 hours, 3.0 μg/mL of LPS was added to the media and the cells were further cultured for 20 hours. Then, NO production amounts were measured by Griess reaction and plotted against the respective DTCM glutarimide-C12 concentrations (the bar graph in FIG. 4).

[9] = system: RAW264.7 cells; assay: Cytotoxicity on RAW264.7 cells: cell survival rate (trypan blue) and total cell number; assay type: cell-based; settings: after 48 hours
Experimental: In this example, cytotoxicity of DTCM glutarimide on RAW264.7 cells was evaluated, based on cell survival rate and cell growth rate.
The RAW264.7 cells were seeded on plastic dishes at 1×10^4 cells/ml in DMEM medium containing 10% FBS, to which DTCM glutarimide-C12 was added at the concentration of 0, 0.1, 0.3, 1.0, 3.0 or 10.0 μg/mL to the media. After 24 hours or 48 hours of culture, numbers of total cells were counted using hemacytometer, and numbers of living cells were counted using trypan blue dye exclusion assay.

[10] = system: IL-6; assay: IL-6 production by macrophage activation (ELISA); assay type: cell-based; settings: RAW264.7 cells, LPS
Experimental: RAW264.7 cells were activated under the same conditions as in (4), the cells were recovered, proteins were extracted from the cells by a routine method. An ELISA was conducted using 96-well polystyrene microplates onto which the anti-IL-6 antibody had been immobilized. […] The detected concentrations of IL-6 per 10^6 cells were plotted in FIG. 9.

[11] = system: RAW264.7 cells; assay: Living cell count by MTT method in LPS-stimulated cells; assay type: cell-based; settings: all concentrations 0.1-3.0 μg/mL, 20 hours
[12] = 0.1-3.0 μg/mL, 2 hours pretreatment, LPS 3.0 μg/mL, 20 hours
[13] = 10 μg/mL, positive control, LPS

Structure (SMILES): CCCCCCCCCCCCSC(=O)CC1CC(=O)NC(=O)C1 [DTCM glutarimide-C12]
iNOS expression ([1]; 0.1-3.0 μg/mL): prominently suppressed this iNOS expression in a concentration-dependent manner
survival rate ([2]; 3.0 μL groups, regardless of culture time (24, 48, 72 hours)): more than 80%
survival rate ([2]; 10.0 and 30.0 μg/mL groups, regardless of culture time): reduced
toxicity on murine myelocyte-derived macrophages ([2]; concentrations up to 3.0 μL): does not exhibit toxicity
cell survival rate of F9 cells ([3]; 0.1-30.0 μg/mL, 24, 48 or 72 hours, depending on concentration): significantly reduced
cell growth of F9 cells ([3]; 0.1-30.0 μg/mL, 24-72 hours, versus group without addition): suppressed
cell survival rate of F9 cells, 72-hour versus 24-hour and 48-hour culturing ([3]; 10 or 30 μg/mL): significantly reduced cell survival rate
inhibition of synthesis of DNA, RNA and protein [4]: no significant inhibitory activity
COX-2 expression ([5]; 0.1-3.0 μg/mL): prominently suppressed this COX-2 expression in a concentration-dependent manner
number of osteoclasts [6]: significantly reduced
DNA binding ability of NF-κB ([7]; concentrations below 3.0 μg/mL, LPS 30 minutes): did not suppress the DNA binding ability of NF-κB
NO production [8, 12]: significantly suppressed this NO production in a concentration-dependent manner
total cell number (cell growth) ([9]; concentrations up to 1.0 μg/mL): no suppression of cell growth was detected
cell survival rate (living cell number/total cell number) ([9]; concentrations up to 3.0 μg/mL): no cell killing effect was detected
IL-6 production ([10]; concentrations below 3.0 μg/mL): did not affect this IL-6 production
numbers of living cells (MTT), cell growth [11]: did not affect the cell growth

Structure (SMILES): CCCCCCSC(=O)CC1CC(=O)NC(=O)C1 [DTCM glutarimide-C6]
NO production [8, 12]: suppresses NO production
NO production ([8]; 0.1-3.0 μg/mL, 2 hours pretreatment, LPS 3.0 μg/mL, 20 hours, listed as DTCM glutarimide-C16): almost the same results

activity of NF-κB (DNA binding) [7, 13]: the activity of NF-κB is suppressed
Structure (SMILES): O=C(NC1=CC(=O)[C@H]2O[C@H]2[C@H]1O)c1ccccc1O [(−)-DHMEQ, reference compound]
iNOS expression ([1]; 10 μg/mL, control): iNOS expression is suppressed
COX-2 expression ([5]; 10 μg/mL, positive control): COX-2 expression is suppressed
NO production [8, 13]: NO expression is suppressed
IL-6 production ([10]; 10 μg/mL, positive control): IL-6 production is suppressed

From patent publication US8524747B2, “Pharmaceutical compositions” (Keio University, priority 2008, dated 2013)
